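Tested at 5 concentrations; 48 h exposure; 96-well plates; endpoints linearly interpolated, else capped at highest concentration. TGI denotes the concentration required for complete inhibition of growth.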
What was measured:
Assay in all cases: NCI tumour cell line growth inhibition, 48 h
NCI/ADR-RES ovarian = test system: NCI/ADR-RES ovarian
HL-60(TB) leukemia = test system: HL-60(TB) leukemia
OVCAR-4 ovarian = test system: OVCAR-4 ovarian
LOX IMVI melanoma = test system: LOX IMVI melanoma
OVCAR-5 ovarian = test system: OVCAR-5 ovarian
EKVX NSCLC = test system: EKVX NSCLC
UO-31 renal = test system: UO-31 renal
UACC-257 melanoma = test system: UACC-257 melanoma
A498 renal = test system: A498 renal
RXF 393 renal = test system: RXF 393 renal

Row | Structure (SMILES) | TGI (NCI/ADR-RES ovarian) [µM] | TGI (HL-60(TB) leukemia) [µM] | TGI (OVCAR-4 ovarian) [µM] | TGI (LOX IMVI melanoma) [µM] | TGI (OVCAR-5 ovarian) [µM] | TGI (EKVX NSCLC) [µM] | TGI (UO-31 renal) [µM] | TGI (UACC-257 melanoma) [µM] | TGI (A498 renal) [µM] | TGI (RXF 393 renal) [µM]
1 | COC(=O)C(Cc1ccccc1)NC(=O)CCCNC(=O)OCc1ccccc1 (stereo not drawn) | > 100 | > 100 | > 100 | > 100 | > 100 | > 100 | > 100 |  |  | 
2 | CC(=O)Nc1ccc(C(=O)N2N=C(C)/C(=C/c3cccc(O)c3)C2=O)cc1 |  |  | > 100 | > 100 | > 100 | > 100 | > 100 | > 100 |  | 
3 | CC(=O)OCC1OC(n2c3c(c(-c4ccco4)c(C#N)c2=S)CCCC3)C(OC(C)=O)C(OC(C)=O)C1OC(C)=O (stereo not drawn) | > 31.6 |  | > 31.6 | > 31.6 | > 31.6 | 29.8 | > 31.6 | > 31.6 | 22.1 | 
4 | c1ccc(COc2ncccc2C2SCCCS2)cc1 | > 100 |  | > 100 | > 100 | > 100 | > 100 | > 100 | > 100 | > 100 | > 100
5 | COc1cc2cc3c4c(cc(OC)c(OC)c4c2cc1OC)CCN3C(=O)OCCBr |  | > 100 |  | > 100 | > 100 | > 100 | > 100 | > 100 | > 100 | > 100
6 | CNC(=O)OCC1=C(COC(=O)NC)CN(c2ccccc2)C1 | > 100 |  | > 100 | > 100 | > 100 | > 100 | > 100 | > 100 | > 100 | > 100
7 | O=C(CCCN1CCc2[nH]c3cc(F)ccc3c2C1)c1ccc(F)cc1 | 36.1 | 27.2 | 26.9 | 17.5 | 24.7 | 29.3 |  | 28.8 | 24.4 | 28.3
8 | COc1ccc(S(=O)(=O)Nc2ccc(-c3csc(N4C(=O)/C(=C/C=C\c5ccccc5)N=C4c4ccccc4)n3)cc2)cc1Cl | 73.8 | 59.9 | 88.9 | 46.3 | > 100 |  | 58.6 | > 100 | 73.1 | 62.5
9 | COc1ccc(NC(=O)C2=C(SC)C(=O)N=C2N)cc1 | > 100 | > 100 | > 100 | > 100 |  | > 100 | > 100 | > 100 | > 100 | > 100
10 | COC(=O)C1(Cc2ccccc2)Cc2ccccc2C1=O (stereo not drawn) | 72.3 | 51.1 | > 100 | > 100 | > 100 | > 100 | > 100 | > 100 |  | 
11 | Cc1ccc(C2=Nn3c(nc4sc(-c5ccccc5)cc4c3=O)SC2)cc1 | > 100 | > 100 | > 100 | > 100 | > 100 | > 100 | > 100 | > 100 | > 100 | 
12 | CCOc1ccc(NC(=S)/N=C/C(C(=O)Nc2ccccc2C)=C(\C)O)cc1 | > 100 | > 100 | > 100 | > 100 | > 100 | > 100 | > 100 | > 100 |  | > 100
13 | O=C(CCN1CCCCC1CO)Nc1ccc2c(c1)C(=O)c1ccc(NC(=O)CCN3CCCCC3CO)cc1C2=O (stereo not drawn) |  | 29.8 | 27.1 | 20.8 | 67.5 | 47 | 26.7 | 91.3 | 9.87 | 7.45
14 | CC(=O)Oc1ccc2c(c1)c1c(OC(C)=O)c3ccccc3c(OC(C)=O)c1n2Cc1cccc(C)c1 | > 100 | > 100 | > 100 |  | > 100 | 57.3 | > 100 |  | 70.6 | > 100
15 | COc1cc2c(cc1OC)C1Cc3ccccc3CN1CCC2 (stereo not drawn) | > 100 |  | > 100 | > 100 | > 100 | > 100 |  | > 100 | > 100 | > 100
16 | COc1cc(/C=C2\C[C@H]3[C@@H]4CC=C5C[C@@H](N6CCCC6)CC[C@]5(C)[C@H]4CC[C@]3(C)[C@H]2OC(C)=O)cc(OC)c1OC | 30.9 | 65.7 | 34.8 |  | 29.7 | 27.3 | 30 | 33.8 | 28.7 | 27
17 | Fc1nc(F)nc(-c2c3ccccc3c3n2CCS3)n1 |  | > 100 | > 100 | > 100 | > 100 | > 100 | > 100 |  | > 100 | > 100
18 | CSc1nc(Br)nc2c1ncn2C1CC(Oc2ccc(C)cc2)C(COc2ccc(C)cc2)O1 (stereo not drawn) | > 100 | > 100 | > 100 | > 100 | > 100 | > 100 |  | > 100 | > 100 | 
19 | C=C1C(=O)O[C@H]2C(=O)[C@H](C)CCC[C@@](C)(O)/C=C\C[C@@]3(C)O[C@@H]3C[C@@H]12 | > 100 |  |  | 32.2 | 3.64 |  | 27.6 | 31 | 56.1 | 
20 | c1ccc(C/C(=N\Nc2nc3ccccc3o2)c2ccccn2)cc1 | 0.0824 | 1.68 |  | 2.27 |  | < 0.0267 | 4.55 | 3.85 | 1.69 | 1.92
21 | Cc1cccc(N2CCN(S(=O)(=O)c3ccc(Cl)cc3)C2=N)c1C | > 100 |  |  |  | > 100 |  | > 100 | > 100 | > 100 | > 100
22 | O=C(O)CCCc1nc2c(n1-c1ccccc1)C(=O)c1ccccc1C2=O | > 100 | > 100 | 76.2 | > 100 | > 100 | > 100 | > 100 | > 100 | > 100 | 
23 | COC1(OC)N=C(N)C2(C#N)/C(=N/N(C)C)CC(C)C12C#N (stereo not drawn) | > 100 | > 100 |  | > 100 | > 100 | > 100 | > 100 | > 100 | > 100 | > 100

From PubChem BioAssay (NCI)
